Source: patent US11760795B2, “Monoclonal antibodies to growth and differentiation factor 15 (GDF-15), and uses thereof for treating cancer cachexia and cancer” (JULIUS-MAXIMILIANS-UNIVERSITÄT WÜRZBURG, priority 2014, dated 2023)
Values joined by “and” are separate entries in the source; they are usually repeats but may differ in a detail not shown here. Identical values can stand only once.

How the values were obtained:
[1] = Study No. 140123: feed consumption of UACC-257 inoculated mice; type: in vivo, Balb/c^nu/nu mice; details: average over day 17-34 intervals, with standard deviation
Description: Treatment of cancer-induced weight loss with anti-GDF-15 antibodies. In the underlying animal study No. 140123, 10 Balb/c^nu/nu mice per treatment group were subcutaneously inoculated with 10×10^6 UACC-257 cells per animal in a 1:1 volume ratio with matrigel (100 μl cells+100 μl matrigel). The animals were treated on the same day with the respective antibodies, as indicated below:
In addition to evaluating the mean body weight of the mice, the feed consumption of the mice was evaluated by pairwise comparisons of the study groups (Table 1).

[2] = target: T1, human GDF-15 (Homo sapiens, UniProt Q99988); experiment: Kd determination by Surface Acoustic Wave (SAW) gold chip biosensors; type: binding; details: murine B1-23 stabilized with 0.2% BSA, H1L5 as CHO supernatant
T1 sequence (Q99988 with tags, fused parts or gaps limits assumed): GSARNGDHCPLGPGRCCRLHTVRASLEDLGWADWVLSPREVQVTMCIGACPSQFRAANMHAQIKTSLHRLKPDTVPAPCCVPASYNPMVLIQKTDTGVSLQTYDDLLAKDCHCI
Source text: Determination of Kd values of anti-GDF-15 antibodies. The Kd values of different anti-GDF-15 antibodies were compared using Surface Acoustic Wave (SAW) gold chip biosensors technology (SAW Instruments GmbH, Schwertberger Str. 16, D-53177 Bonn, Germany):
The murine antibody (B1-23) as well as the chimeric B1-23 antibody were present in purified form. The H1L5 humanized B1-23 antibody was a serum-free CHO cell culture supernatant.

[3] = comparison value, antigen not given; read-out: equilibrium dissociation constant of therapeutic antibody; cited from earlier work

Kd [2] [nM] | Molecule | Feed consumption per mouse and day [1] [g] | Kd [3]
– | CN(C)/N=N/c1[nH]cnc1C(N)=O [dacarbazine, Dacarbazine, reference compound] | 2.8 ± 0.2 | –
1120 | Rituximab: therapeutically used antibody; control antibody in SAW assay | – | ~8 nM and 8 nM
